Reference: paper PMC5053523, “In Vitro Antibacterial Activity of Rhodanine Derivatives against Pathogenic Clinical Isolates” (PLoS ONE, 2016)
Where two headings read alike, the source gives them in different places.

Legend:
[1] = system: vancomycin resistant enterococci (VRE) E. faecalis; assay: Broth microdilution MIC/MBC, VRE E. faecalis; format: cell-based; details: for MIC: read-out: MIC
[2] = system: vancomycin resistant enterococci (VRE) E. faecium; assay: Broth microdilution MIC/MBC, VRE E. faecium; format: cell-based; details: for MIC: read-out: MIC
[3] = system: methicillin-resistant Staphylococcus aureus (MRSA); assay: Broth microdilution MIC/MBC, MRSA; format: cell-based
[4] = system: Vancomycin Resistant Staphylococcus aureus (VRSA); assay: Broth microdilution MIC/MBC, VRSA; format: cell-based; details: for MBC / MIC: VRSA
B. cereus = assay: Broth microdilution MIC/MBC, B. cereus; format: cell-based; details: Bacillus cereus; for MBC: read-out: MBC; for MIC: read-out: MIC
Text: The broth microdilution technique was used, followed by subculturing on agar plates that were rhodanine—free.

Mycobacterium smegmatis = assay: Broth microdilution MIC/MBC, Mycobacterium smegmatis; format: cell-based; details: Mycolicibacterium smegmatis, ATCC14468, M. Smegmatis ATCC 14468
Acinetobacter baumannii [5] = assay: Broth microdilution MIC, Acinetobacter baumannii; format: cell-based
[6] = system: established methicillin-resistant S. epidermidis biofilm (ATCC 35984, NRS 101); assay: Microtiter dish biofilm eradication assay (crystal violet); format: cell-based, Staphylococcus epidermidis; details: 24 h, relative to untreated wells
Experimental: We used S. epidermidis ATCC 35984 (NRS 101), a high-slime producer isolated in septicemic patients, with colonized intravascular catheters from Tennessee, USA [10]. This strain is a multi-drug resistant strain, showing resistance to methicillin, erythromycin, kanamycin, gentamicin, clindamycin and trimethoprim. Briefly, an overnight culture of biofilm—producing MRSE was diluted 1:100 in a fresh medium containing 1% glucose in a 96-well tissue-culture treated plate. Bacteria were incubated at 37°C for 24 h to permit the formation of an adherent biofilm. The medium was removed and the biofilm was washed with PBS. Antibacterial drugs (vancomycin and linezolid) and rhodanine 2, at indicated concentration, were added and incubated again at 37°C for 24 h. Plates were washed again and biofilms were stained with 0.1% (wt/vol) crystal violet. Plates were washed with PBS, air-dried and biofilm mass was dissolved using 95% ethanol. The intensity of crystal violet was measured using a micro plate reader (SpectraMax i3x; Molecular Devices, Sunnyvale, CA, USA). Data are presented as the percent biofilm mass reduction in treated groups in relation to untreated wells.

[7] = system: Staphylococcus epidermidis; assay: Broth microdilution MIC, Staphylococcus epidermidis; format: cell-based
Acinetobacter baumannii [8] = assay: MIC with/without sub-MIC colistin, Acinetobacter baumannii; format: cell-based
Outline: (§1)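 Read-out is the MIC, determined with sub-inhibitory colistin or polymixin B nonapeptide co-applied to permeabilize the outer membrane of Gram-negative bacteria.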

Klebsiella pneumoniae = assay: MIC with/without sub-MIC colistin, Klebsiella pneumoniae; format: cell-based
Outline: as §1

Escherichia coli Δ acrAB = assay: MIC against E. coli 1411 and AcrAB efflux pump deficient E. coli SM1411Δ acrAB; format: cell-based
Outline: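 Sub-MIC colistin or PMBN added to broth MIC tests of rhodanines and reference antibiotics against Gram-negative strains; AcrAB efflux-deficient E. coli SM1411ΔacrAB also tested.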

[9] = E. faecalis NR31972 Strain SF 28073
[10] = E. faecium HM 968 Strain ERV102
[11] = E. faecium NR31914 Strain E0120
[12] = E. faecium Patient #1–1 NR-31903
[13] = NRS201, B. cereus NRS 201 NR-2488

O=C(O)[C@H](Cc1ccccc1)N1C(=O)/C(=C/c2cccc(-c3ccc(Cl)c(Cl)c3)c2)SC1=S [Rh 2]
64 µM: MBC ([2]; E. faecium E417 HM-965) | MBC ([2]; E. faecium E1071 NR-28978) | MBC [2, 10] | MBC [2, 12] | MBC ([4]; VRSA 5, read-out: MBC) | MBC ([4]; VRSA 11b, read-out: MBC) | MBC ([4]; VRSA 13, read-out: MBC)
16 µM: MBC ([3]; MRSA NRS 107) | MBC ([3]; MRSA NRS 384) | MBC ([4]; VRSA 3a, read-out: MBC) | MBC ([4]; VRSA 6, read-out: MBC)
>64 µM: MIC (Acinetobacter baumannii [8]; Acinetobacter baumannii ATCC BAA747, colistin (+) […], read-out: MIC) | MIC (Acinetobacter baumannii [8]; Acinetobacter baumannii ATCC BAA19606, colistin (+) […], read-out: MIC) | MIC (Klebsiella pneumoniae; Klebsiella pneumoniae ATCC BAA 2146, colistin (+) […])
more than 35%: biofilm mass reduction ([6]; at 4 times its MIC)
8 µM: MIC ([2]; E. faecium E1071 NR-28978) | MIC ([3]; MRSA NRS 107) | MBC ([3]; MRSA NRS 386) | MBC ([4]; VRSA 1, read-out: MBC) | MBC ([4]; VRSA 8, read-out: MBC) | MIC ([4]; VRSA 9, read-out: MIC) | MBC (Mycobacterium smegmatis; read-out: MBC)
32 µM: MBC [1, 9] | MBC [2, 11] | MBC ([4]; VRSA 7, read-out: MBC) | MBC ([4]; VRSA 9, read-out: MBC) | MBC ([4]; VRSA 10, read-out: MBC) | MBC ([4]; VRSA 12, read-out: MBC)
> 128 µM: MIC (Acinetobacter baumannii [5]; ATCC13345) | MIC (Acinetobacter baumannii [5]; ATCC17786) | MIC (Acinetobacter baumannii [8]; Acinetobacter baumannii, ATCCBAA747) | MIC (Acinetobacter baumannii [8]; Acinetobacter baumannii, ATCCBAA19606) | MIC (Klebsiella pneumoniae; Klebsiella pneumoniae, BAA2146)
4 µM: MBC ([1]; E. faecalis ERV103 HM-934) | MIC ([1]; E. faecalis ERV103 HM-934) | MIC [1, 9] | MBC ([1]; E. faecalis R712 HM-335) | MIC ([1]; E. faecalis R712 HM-335) | MBC ([1]; E. faecalis S613 HM-334) | MIC ([1]; E. faecalis S613 HM-334) | MBC ([1]; E. faecalis TX0104 HM-201) | MIC ([1]; E. faecalis TX0104 HM-201) | MIC ([2]; E. faecium E417 HM-965) | MIC [2, 10] | MIC [2, 11] | MIC [2, 12] | MIC50 ([3]; 11 MRSA strains) | MIC90 ([3]; 11 MRSA strains) | MBC ([3]; MRSA NRS 1) | MIC ([3]; MRSA NRS 1) | MBC ([3]; MRSA NRS 19) | MIC ([3]; MRSA NRS 19) | MBC ([3]; MRSA NRS 37) | MIC ([3]; MRSA NRS 37) | MBC ([3]; MRSA NRS 119) | MIC ([3]; MRSA NRS 119) | MBC ([3]; MRSA NRS 382) | MIC ([3]; MRSA NRS 382) | MBC ([3]; MRSA NRS 383) | MIC ([3]; MRSA NRS 383) | MIC ([3]; MRSA NRS 384) | MBC ([3]; MRSA NRS 385) | MIC ([3]; MRSA NRS 385) | MIC ([3]; MRSA NRS 386) | MBC ([3]; MRSA NRS 387) | MIC ([3]; MRSA NRS 387) | MIC50 ([4]; 15 VRSA strains, read-out: MIC 50) | MIC90 ([4]; 15 VRSA strains, read-out: MIC 90) | MIC ([4]; VRSA 1, read-out: MIC) | MBC ([4]; VRSA 2, read-out: MBC) | MIC ([4]; VRSA 2, read-out: MIC) | MIC ([4]; VRSA 3a, read-out: MIC) | MBC ([4]; VRSA 3b, read-out: MBC) | MIC ([4]; VRSA 3b, read-out: MIC) | MBC ([4]; VRSA 4, read-out: MBC) | MIC ([4]; VRSA 4, read-out: MIC) | MIC ([4]; VRSA 5, read-out: MIC) | MIC ([4]; VRSA 6, read-out: MIC) | MIC ([4]; VRSA 7, read-out: MIC) | MIC ([4]; VRSA 8, read-out: MIC) | MIC ([4]; VRSA 10, read-out: MIC) | MBC ([4]; VRSA 11a, read-out: MBC) | MIC ([4]; VRSA 11a, read-out: MIC) | MIC ([4]; VRSA 11b, read-out: MIC) | MIC ([4]; VRSA 12, read-out: MIC) | MIC ([4]; VRSA 13, read-out: MIC) | MBC (B. cereus; B. cereus BAG1O-2 NR-28582) | MIC (B. cereus; B. cereus BAG1O-2 NR-28582) | MBC (B. cereus; B. cereus BAG1X2-1 NR-28578) | MBC (B. cereus; B. cereus G9241 NR-9564) | MIC (B. cereus; B. cereus G9241 NR-9564) | MBC (B. cereus; B. cereus VD115 NR-22148) | MIC (B. cereus; B. cereus VD115 NR-22148) | MBC (B. cereus; [13]) | MIC (B. cereus; [13]) | MIC (Mycobacterium smegmatis; read-out: MIC) | MIC [7]
2 µM: MBC (B. cereus; B. cereus BAG1X1-1 NR-28575) | MIC (B. cereus; B. cereus BAG1X1-1 NR-28575) | MIC (B. cereus; B. cereus BAG1X2-1 NR-28578) | MBC (B. cereus; B. cereus VD014 NR-22141) | MIC (B. cereus; B. cereus VD014 NR-22141) | MBC (B. cereus; B. cereus VD148 NR-22150) | MIC (B. cereus; B. cereus VD148 NR-22150)
> 64 µM: MIC (Escherichia coli Δ acrAB; E.coli 1411) | MIC (Escherichia coli Δ acrAB; E.coli 1411 SM (Δ acrAB, AcrAB efflux pump deficient))
> 45%: biofilm mass reduction ([6]; at 8 times its MIC)
